Results taken from patent US9351944B1, “Malodor eliminating compositions” (TAKASAGO INTERNATIONAL CORPORATION, priority 2008, dated 2016).
“And” between values parts separate entries of the source, which are not always exact repeats. Equal values may be shown once.

Columns and labels:
[1] = Allyl mercaptan chemical suppression by malodor eliminating materials (GC-PFPD); conditions: OE material 0.2%, malodor material 10 ppm, room temperature 2 hours, triplicate
Method: (§1) The selected OE materials were tested for propyl, allyl, and furfuryl mercaptan suppression. 100 μl of 0.01%(w/v) of test malodor material in ethanol, 2 μl of neat flavor oil and 900 μl of deionized water were added into a 4 ml vial and left to sit at room temperature for 2 hours. As a control, ethanol was added instead of test flavor materials. The final concentration of test OE material and malodor material are 0.2% and 10 ppm, respectively. 3 ml of ethanol was added into the resulting vial and the thiol level was analyzed using GC-PFPD. Each material was tested in triplicate. Malodor suppression was calculated as described in the example 1 above.

[2] = Methyl mercaptan chemical suppression by Group A and Group B compounds (GC-PFPD); conditions: test material 200 ppm, malodor material 10 ppm, room temperature 2 hours, ethanol/deionized water
Method: 2 μl of 0.5%(w/v) of sodium methoxide in deionized water, 20 μl of 1% (w/v) test malodor eliminating material in ethanol, 80 μl of ethanol, and 900 μl of deionized water were added into a 2 ml GC vial, left to sit at room temperature for 2 hours, and analyzed using Multipurpose sampler-GC-PFPD (Gas Chromatography-Pulsed Flame Photometric Detector) (GC-PFPD)MPS2 (Gerstel)—GC; 6890N (Agilent)—PFPD; model 5380 (OI Analytical). As a control, ethanol was added instead of test malodor eliminating materials. The final concentration of test OE material and malodor material are 200 ppm and 10 ppmm, respectively. Malodor suppression was calculated as follows: Malodor Suppression (%)=(GC area of control sample−GC area of test_sample)/GC area of control sample×100

[3] = Methyl mercaptan suppression by Group A and Group B materials alone and combined (synergistic or additive activity); conditions: in ethanol, room temperature 2 hours
Method: The synergistic or additive activity of methyl mercaptan inhibition of malodor eliminating materials was tested. 5-40 μl of 1% (w/v) test OE materials in ethanol was placed into a 2 ml GC vial. Ethanol was added into this vial up to 1000 μl. 2 μl of 0.5%(w/v) of sodium methoxide in deionized water was added into the resulting vial, left to sit at room temperature for 2 hours, and analyzed using Multipurpose sampler-GC-PFPD. As a control, ethanol was added instead of test OE materials. Malodor suppression was calculated as described in Example 1 above.

[4] = Propyl mercaptan chemical suppression by malodor eliminating materials (GC-PFPD); conditions: OE material 0.2%, malodor material 10 ppm, room temperature 2 hours, triplicate
Method: as §1

[5] = Suppression of methyl mercaptan (Example 12, GC-PFPD); conditions: test material 0.2%, malodor material 10 ppm, room temperature 2 hours, triplicate
Method: as §1, with “100” for “The selected OE materials were tested for propyl, allyl, and furfuryl mercaptan suppression. 100”, “the malodor reducing compound.” for “test flavor materials.”, “test” for “test OE”, “ppmm,” for “ppm,”, “GC-PFPD as described above.” for “GC-PFPD.”

[6] = Furfuryl mercaptan chemical suppression by malodor eliminating materials (GC-PFPD); conditions: OE material 0.2%, malodor material 10 ppm, room temperature 2 hours, triplicate
Method: as §1

Question: For C=CCc1ccc(O)c(OC)c1 [EUGENOL, eugenol], which “Malodor reduction (%) allyl mercaptan” value [1] is on record?
Answer: 63%

Question: And the “methyl mercaptan suppression (%)” value [2]?
Answer: 46%

Question: What about the “methyl mercaptan suppression (%) B alone” value ([3]; Group B level 400 ppm) of the same molecule?
Answer: 12% and 14% and 15% and 16%

Question: What about the “Malodor reduction (%) propyl mercaptan” value [4] of the same molecule?
Answer: 44%

Question: What about the “methyl mercaptan suppression (%)” value [5] of the same molecule?
Answer: 78%

Question: What about the “Malodor reduction (%) furfuryl mercaptan” value [6] of the same molecule?
Answer: 80%

Question: With CC/C=C\CCOC(C)=O [HEXENYL CIS 3 ACETATE, cis-3-hexenyl acetate] as the molecule, how does the “Malodor reduction (%) allyl mercaptan” value [1] read?
Answer: <20%

Question: What about the “methyl mercaptan suppression (%)” value [2] of the same molecule?
Answer: 60%

Question: And the “methyl mercaptan suppression (%) B alone” value ([3]; Group B level 100 ppm)?
Answer: 22% and 27%

Question: And the “Malodor reduction (%) propyl mercaptan” value [4]?
Answer: <20%

Question: And the “methyl mercaptan suppression (%)” value [5]?
Answer: 38%

Question: And the “Malodor reduction (%) furfuryl mercaptan” value [6]?
Answer: 28%

Question: For CC(=O)/C=C/C1=C(C)CCCC1(C)C [IONONE-BETA, ionone beta], which “Malodor reduction (%) allyl mercaptan” value [1] is on record?
Answer: 37%

Question: What about the “methyl mercaptan suppression (%)” value [2] of the same molecule?
Answer: 23%

Question: And the “methyl mercaptan suppression (%) A alone” value ([3]; Group A level 200 ppm)?
Answer: 71%

Question: And the “Malodor reduction (%) propyl mercaptan” value [4]?
Answer: 27%

Question: What about the “methyl mercaptan suppression (%)” value [5] of the same molecule?
Answer: 55%

Question: And the “Malodor reduction (%) furfuryl mercaptan” value [6]?
Answer: 51%

Question: What does the source list for CCCCCC#CC(=O)OC [METHYL HEPTIN CARE, methyl heptin carbonate]?
Answer: Malodor reduction (%) allyl mercaptan [1]: 63%; methyl mercaptan suppression (%) [2]: 92%; methyl mercaptan suppression (%) A alone ([3]; Group A level 50 ppm, listed as METHYL HEP CARB): 67% and 53%; Malodor reduction (%) propyl mercaptan [4]: 44%; methyl mercaptan suppression (%) [5]: 80%; Malodor reduction (%) furfuryl mercaptan [6]: 69%

Question: With piperitone-d [[…]] as the molecule, how does the “Malodor reduction (%) allyl mercaptan” value [1] read?
Answer: 51%

Question: And the “methyl mercaptan suppression (%)” value [2]?
Answer: 37%

Question: What about the “methyl mercaptan suppression (%) A alone” value ([3]; Group A level 200 ppm) of the same molecule?
Answer: 8%

Question: And the “methyl mercaptan suppression (%) A alone” value ([3]; Group A level 200 ppm, listed as PIPERITONED)?
Answer: 12%

Question: What about the “Malodor reduction (%) propyl mercaptan” value [4] of the same molecule?
Answer: <20%

Question: And the “methyl mercaptan suppression (%)” value [5]?
Answer: 45%

Question: What about the “Malodor reduction (%) furfuryl mercaptan” value [6] of the same molecule?
Answer: 64%
